{
  "source": "PubChem BioAssay AID2060497",
  "about": "(Molecular Pharmacology Branch, DTP, NCI, 2025)",
  "system": "317291-083-R-J1-PDC complex spheroids, viability",
  "experiment": "Anticancer human tumor 317291-083-R-J1-PDC patient-derived soft tissue sarcoma cell line growth inhibition [GQUAD]",
  "conditions": "for pIC50: curve of first compound; for viability, T/C: stronger effect = lower value",
  "how_it_was_run": "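Multi-cell-type spheroids of tumor cells with HUVEC and mesenchymal stem cells, treated with drug combinations. Concentrations descend in half-log steps from near clinical Cmax, or from 10 microM where Cmax is unknown; viability read-out.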",
  "note": "pIC50: −log10 of the molar value.",
  "data": [
    {"compound": "CC1COCCN1c1cc(C2(O)CC3CCC(C2)O3)c2cnn(-c3ccn[nH]3)c2n1", "note": "(configuration not stated) + Cc1[nH]c2ccc(F)cc2c1-c1nc2c3cccnc3c3ncccc3c2[nH]1;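 further: spheroids exposed to compounds for one week before readout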;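 on viability, T/C: percent viability relative to DMSO vehicle wells taken as 100%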", "values": [
      {"measurement": "pIC50", "setting": "second compound 0.0316 µM", "value": 7.15},
      {"measurement": "pIC50", "setting": "second compound 0.1 µM", "value": 7.26},
      {"measurement": "pIC50", "setting": "second compound 0.316 µM", "value": 7.41},
      {"measurement": "pIC50", "setting": "second compound 1 µM", "value": 7.29},
      {"measurement": "pIC50", "setting": "second compound 3.16 µM", "value": 7.30},
      {"measurement": "pIC50", "setting": "second compound 10 µM", "value": 7.47},
      {"measurement": "viability, T/C", "setting": "second compound 0.0316 µM, first compound 0.0316 µM", "value": 84.1, "unit": "%"},
      {"measurement": "viability, T/C", "setting": "second compound 0.0316 µM, first compound 0.1 µM", "value": 34.8, "unit": "%"},
      {"measurement": "viability, T/C", "setting": "second compound 0.0316 µM, first compound 0.316 µM", "value": 16, "unit": "%"},
      {"measurement": "viability, T/C", "setting": "second compound 0.0316 µM, first compound 1 µM", "value": 22.8, "unit": "%"},
      {"measurement": "viability, T/C", "setting": "second compound 0.0316 µM, first compound 3.16 µM", "value": 13.2, "unit": "%"},
      {"measurement": "viability, T/C", "setting": "second compound 0.0316 µM, first compound 10 µM", "value": 3.15, "unit": "%"},
      {"measurement": "viability, T/C", "setting": "second compound 0.1 µM, first compound 0.0316 µM", "value": 68.5, "unit": "%"},
      {"measurement": "viability, T/C", "setting": "second compound 0.1 µM, first compound 0.1 µM", "value": 29.5, "unit": "%"},
      {"measurement": "viability, T/C", "setting": "second compound 0.1 µM, first compound 0.316 µM", "value": 13.9, "unit": "%"},
      {"measurement": "viability, T/C", "setting": "second compound 0.1 µM, first compound 1 µM", "value": 12.8, "unit": "%"},
      {"measurement": "viability, T/C", "setting": "second compound 0.1 µM, first compound 3.16 µM", "value": 10.4, "unit": "%"},
      {"measurement": "viability, T/C", "setting": "second compound 0.1 µM, first compound 10 µM", "value": 3.93, "unit": "%"},
      {"measurement": "viability, T/C", "setting": "second compound 0.316 µM, first compound 0.0316 µM", "value": 55.7, "unit": "%"},
      {"measurement": "viability, T/C", "setting": "second compound 0.316 µM, first compound 0.1 µM", "value": 27.9, "unit": "%"},
      {"measurement": "viability, T/C", "setting": "second compound 0.316 µM, first compound 0.316 µM", "value": 14.8, "unit": "%"},
      {"measurement": "viability, T/C", "setting": "second compound 0.316 µM, first compound 1 µM", "value": 20.1, "unit": "%"},
      {"measurement": "viability, T/C", "setting": "second compound 0.316 µM, first compound 3.16 µM", "value": 12.1, "unit": "%"},
      {"measurement": "viability, T/C", "setting": "second compound 0.316 µM, first compound 10 µM", "value": 3.04, "unit": "%"},
      {"measurement": "viability, T/C", "setting": "second compound 1 µM, first compound 0.0316 µM", "value": 66.4, "unit": "%"},
      {"measurement": "viability, T/C", "setting": "second compound 1 µM, first compound 0.1 µM", "value": 26.4, "unit": "%"},
      {"measurement": "viability, T/C", "setting": "second compound 1 µM, first compound 0.316 µM", "value": 18.6, "unit": "%"},
      {"measurement": "viability, T/C", "setting": "second compound 1 µM, first compound 1 µM", "value": 10.8, "unit": "%"},
      {"measurement": "viability, T/C", "setting": "second compound 1 µM, first compound 3.16 µM", "value": 11.3, "unit": "%"},
      {"measurement": "viability, T/C", "setting": "second compound 1 µM, first compound 10 µM", "value": 2.71, "unit": "%"},
      {"measurement": "viability, T/C", "setting": "second compound 3.16 µM, first compound 0.0316 µM", "value": 69.7, "unit": "%"},
      {"measurement": "viability, T/C", "setting": "second compound 3.16 µM, first compound 0.1 µM", "value": 20.4, "unit": "%"},
      {"measurement": "viability, T/C", "setting": "second compound 3.16 µM, first compound 0.316 µM", "value": 10.7, "unit": "%"},
      {"measurement": "viability, T/C", "setting": "second compound 3.16 µM, first compound 1 µM", "value": 14.3, "unit": "%"},
      {"measurement": "viability, T/C", "setting": "second compound 3.16 µM, first compound 3.16 µM", "value": 7.98, "unit": "%"},
      {"measurement": "viability, T/C", "setting": "second compound 3.16 µM, first compound 10 µM", "value": 2.88, "unit": "%"},
      {"measurement": "viability, T/C", "setting": "second compound 10 µM, first compound 0.0316 µM", "value": 52.3, "unit": "%"},
      {"measurement": "viability, T/C", "setting": "second compound 10 µM, first compound 0.1 µM", "value": 18.9, "unit": "%"},
      {"measurement": "viability, T/C", "setting": "second compound 10 µM, first compound 0.316 µM", "value": 14, "unit": "%"},
      {"measurement": "viability, T/C", "setting": "second compound 10 µM, first compound 1 µM", "value": 13.8, "unit": "%"},
      {"measurement": "viability, T/C", "setting": "second compound 10 µM, first compound 3.16 µM", "value": 10.7, "unit": "%"},
      {"measurement": "viability, T/C", "setting": "second compound 10 µM, first compound 10 µM", "value": 3.52, "unit": "%"}
    ]}
  ]
}
